From ChEMBL document CHEMBL5104090, “Recent advances in the medicinal chemistry of carbonic anhydrase inhibitors” (Eur J Med Chem, 2021) come the findings set out here.

pIC50, pKi: −log10 of the molar value.

Test [1] deals with T1, Carbonic anhydrase 4 (Homo sapiens, UniProt P22748).
In test [2] the target is T2, Carbonic anhydrase 1 (Homo sapiens, UniProt P00915).
In test [3] the target is T3, Carbonic anhydrase 2 (Homo sapiens, UniProt P00918).
Test [4] deals with T4, Carbonic anhydrase 9 (Homo sapiens, UniProt Q16790).
For test [5], the target named is T5, Carbonic anhydrase 12 (Homo sapiens, UniProt O43570).
T5 sequence (O43570 whole entry): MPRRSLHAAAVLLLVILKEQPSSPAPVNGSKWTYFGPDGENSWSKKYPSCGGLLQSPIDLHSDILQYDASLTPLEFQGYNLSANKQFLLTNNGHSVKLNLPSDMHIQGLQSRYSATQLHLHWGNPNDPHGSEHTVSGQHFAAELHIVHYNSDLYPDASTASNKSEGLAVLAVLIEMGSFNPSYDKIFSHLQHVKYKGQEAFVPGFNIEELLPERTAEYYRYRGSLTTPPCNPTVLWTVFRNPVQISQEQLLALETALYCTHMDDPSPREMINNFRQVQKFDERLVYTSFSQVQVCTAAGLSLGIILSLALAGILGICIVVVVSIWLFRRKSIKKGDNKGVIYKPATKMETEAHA
Test [6] has as its target T4, Carbonic anhydrase 9. This is another data set of the same source.
Test [7] concerns the target T5, Carbonic anhydrase 12. This is another data set of the same source.
Test [8] deals with T2, Carbonic anhydrase 1. This is another data set of the same source.
The target of test [9] is T3, Carbonic anhydrase 2. This is another data set of the same source.
Test [10] has as its target T1, Carbonic anhydrase 4. The source holds these as a separate data set.
Test [11] has as its target T4, Carbonic anhydrase 9. The source holds these as a separate data set.
Test [12] has as its target T2, Carbonic anhydrase 1. The source holds these as a separate data set.
The target of test [13] is T3, Carbonic anhydrase 2. The source holds these as a separate data set.

T2 sequence (P00915 whole entry): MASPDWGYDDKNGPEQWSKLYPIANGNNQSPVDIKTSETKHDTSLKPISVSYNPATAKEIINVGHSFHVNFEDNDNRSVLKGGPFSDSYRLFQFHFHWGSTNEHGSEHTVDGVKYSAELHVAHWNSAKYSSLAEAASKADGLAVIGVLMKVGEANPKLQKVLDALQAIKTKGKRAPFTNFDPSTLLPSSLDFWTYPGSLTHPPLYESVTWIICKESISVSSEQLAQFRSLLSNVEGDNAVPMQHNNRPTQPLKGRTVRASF
T1 sequence (P22748 whole entry): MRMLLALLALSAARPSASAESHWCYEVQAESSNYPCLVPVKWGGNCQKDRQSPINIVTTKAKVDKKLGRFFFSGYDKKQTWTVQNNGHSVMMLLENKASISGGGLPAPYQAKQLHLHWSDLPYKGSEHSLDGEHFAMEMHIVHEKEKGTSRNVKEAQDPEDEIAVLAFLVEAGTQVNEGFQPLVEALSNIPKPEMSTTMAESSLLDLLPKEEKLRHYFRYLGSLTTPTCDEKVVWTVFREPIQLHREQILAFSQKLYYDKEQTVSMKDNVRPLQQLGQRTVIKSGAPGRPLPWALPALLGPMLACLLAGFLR

Take `NS(=O)(=O)c1cccc(N/C=C/C(=O)c2ccco2)c1`: in test [1], the pKi was 7.19.
Consider `Cn1c(-c2ccc(Cl)cc2)nc2cc(C(=O)O)ccc21`, for which the pIC50 in test [2], in test [3], in test [4] and in [5] was under 6.44 throughout.
Regarding `CSc1nc2ccccc2c(=O)n1CCc1ccc(S(N)(=O)=O)cc1`, the pKi in test [6] and in [7] was 7.24 each time.
Take `O=C(O)c1ccc2c(c1)C(=O)N(c1ccccc1)C2=O`: the pKi in test [8], in test [9], in test [10] and in test [11] was under 5.00 each time.
In the case of `Cn1c(-c2ccc(Cl)cc2)nc2cc(S(N)(=O)=O)ccc21`, the pIC50 in test [2], in [3], in test [4] and in test [5] was under 6.44 in each case.
For the compound `CCSc1nc2ccccc2c(=O)n1CCc1ccc(S(N)(=O)=O)cc1`, the pKi in [6] and in [7] was 7.24 throughout.
For `NS(=O)(=O)c1ccc(C(=O)N/N=C/c2ccccc2O)cc1`, the pKi in [6] and in [7] was 8.07 throughout.
In [1], `COc1ccc(C(=O)/C=C/Nc2cccc(S(N)(=O)=O)c2)cc1` gave a pKi of 8.19.
Consider `CCN(CC)c1ccc(/C=N/NC(=O)c2ccc(S(N)(=O)=O)cc2)c(O)c1`, for which the pKi in test [6] is 7.80; in test [7], 8.07.
With `Cn1c(-c2ccccc2)nc2cc(C(N)=O)ccc21`, the pIC50 in test [2], in test [3], in test [4] and in test [5] was under 6.44 throughout.
With `COC(=O)c1ccc2c(c1)C(=O)N(c1ccccc1)C2=O`, the pKi in test [8], in [9], in [10] and in test [11] was under 5.00 each time.
As for `NS(=O)(=O)c1ccc(N/C=C/C(=O)c2ccco2)cc1`, the results for the pKi in test [6] and in test [1] were 9.68 and 8.19, respectively.
Turning to `COC(=O)c1ccc2c(c1)C(=O)N(c1ccc(C(=O)O)cc1)C2=O`, the pKi in test [8], in test [9], in test [10] and in test [11] was under 5.00 each time.
Turning to `NS(=O)(=O)c1ccc(CCn2c(SCc3ccc(Br)cc3)nc3ccccc3c2=O)cc1`, the pKi is 7.71 in test [6] and 7.76 in test [7].
As to `NS(=O)(=O)c1ccc(CCn2c(SCc3ccc(Cl)cc3)nc3ccccc3c2=O)cc1`, the pKi in [6] is 7.71; in [7], 7.76.
In test [1], `NS(=O)(=O)c1cccc(N/C=C/C(=O)c2cccs2)c1` had a pKi of 8.06.
Take `NS(=O)(=O)c1cccc(N/C=C/C(=O)c2ccc([N+](=O)[O-])cc2)c1`: the negative logarithm of the Ki (pKi) in test [1] is 8.19.
As to `O=S1(=O)CC=Cc2cccc(-c3ccc(C(F)(F)F)cc3)c2O1`, the pKi in [12] and in test [13] was under 4.00 in each case.
`NS(=O)(=O)c1ccc(C(=O)N/N=C/c2cccc(O)c2)cc1`: the pKi in test [6] and in test [7] was 8.07 each time.
`NS(=O)(=O)c1cccc(N/C=C/C(=O)c2ccc3ccccc3c2)c1` gave a pKi in test [1] of 8.19.
`O=C1c2ccccc2C(=O)N1CCCSc1nc2ccccc2c(=O)n1CCc1ccccc1`: the pKi is 7.71 in [6] and 7.76 in test [7].
Consider `O=S1(=O)CC=Cc2cc(-c3ccccc3)ccc2O1`, for which the pKi in test [12] and in [13] was under 4.00 in each case.
Consider `N#Cc1ccc(CSc2nc3ccccc3c(=O)n2CCc2ccc(S(N)(=O)=O)cc2)cc1`, for which the pKi in [6] is 7.71; in test [7], 7.76.
Regarding `COc1ccc(-c2ccc3c(c2)OS(=O)(=O)CC=C3)cc1`, the pKi in test [12] and in [13] was under 4.00 throughout.
With `Cc1ccc(CSc2nc3ccccc3c(=O)n2CCc2ccc(S(N)(=O)=O)cc2)cc1`, the values for the pKi in test [6] and in [7] were 7.71 and 7.76, respectively.
Take `O=C(O)c1ccc2c(c1)C(=O)N(Cc1ccccc1)C2=O`: the pKi in test [8], in test [9], in test [10] and in [11] was under 5.00 each time.
With `O=C(O)c1ccc(N2C(=O)c3ccc(C(=O)O)cc3C2=O)cc1`, the pKi in [8], in test [9], in test [10] and in test [11] was under 5.00 throughout.
Consider `O=S1(=O)CC=Cc2ccc(-c3ccccc3)cc2O1`, for which the pKi in [12] and in test [13] was under 4.00 each time.
On to `O=S1(=O)CC=Cc2cc(I)ccc2O1`, for which the negative logarithm of the Ki (pKi) in test [12] and in [13] was under 4.00 throughout.
For `CCOC(=O)c1ccc(-c2cccc3c2OS(=O)(=O)CC=C3)cc1`, the pKi in test [12] and in test [13] was under 4.00 throughout.
On to `Cc1ccc(C(=O)/C=C/Nc2cccc(S(N)(=O)=O)c2)cc1`, for which the pKi in [1] was 8.19.
As for `NS(=O)(=O)c1ccc(C(=O)N/N=C/c2ccc(O)cc2)cc1`, the pKi in [6] and in test [7] was 8.07 in each case.
With `N#CCSc1nc2ccccc2c(=O)n1CCc1ccc(S(N)(=O)=O)cc1`, the pKi in [6] and in test [7] was 7.24 in each case.
For the compound `NS(=O)(=O)c1ccc(CN2C(=O)c3ccc(C(=O)O)cc3C2=O)cc1`, the pKi was 7.27 in test [8], 7.59 in [9], 6.50 in test [10] and 7.27 in [11].
Turning to `Cc1ncc([N+](=O)[O-])n1CCS(N)(=O)=O`, in test [4], the pIC50 is 6.19.
Take `CCOC(=O)c1ccc(N2C(=O)c3ccc(C(=O)OC)cc3C2=O)cc1`: the pKi in test [8], in test [9], in test [10] and in [11] was under 5.00 throughout.
With `COc1ccc(-c2ccc3c(c2)C=CCS(=O)(=O)O3)cc1`, the pKi in [12] and in test [13] was under 4.00 throughout.
On to `COC(=O)c1ccc2c(c1)C(=O)N(CCc1ccc(S(N)(=O)=O)cc1)C2=O`, for which the pKi in test [8] is 7.27; in test [9], 7.59; in test [10], 6.50; in test [11], 7.27.
On to `O=S1(=O)CC=Cc2ccc(Br)cc2O1`, for which the pKi in [12] and in test [13] was under 4.00 throughout.
Turning to `NS(=O)(=O)c1ccc(N2C(=O)c3ccc(C(=O)O)cc3C2=O)cc1`, the pKi in [8] was 7.27; in test [9] it was 7.59; in [10], 6.50; in test [11], 7.27.
As for `NS(=O)(=O)c1ccc(N/C=C/C(=O)c2cccs2)cc1`, the results for the pKi in test [6] and in test [1] were 9.68 and 8.19, respectively.
Taken in the same sequence, the figures for `COc1ccc(C(=O)/C=C/Nc2ccc(S(N)(=O)=O)cc2)cc1` were 9.68 and 8.19.
For `NS(=O)(=O)c1ccc(N/C=C/C(=O)c2ccc(Cl)cc2)cc1` the same measures were 9.68 and 8.19.
As to `NS(=O)(=O)c1ccc(CCN2C(=O)c3ccc(C(=O)O)cc3C2=O)cc1`, the pKi in test [8] was 7.27; in [9], 7.59; in test [10], 6.50; in [11] it was 7.27.
In [1], `NS(=O)(=O)c1cccc(N/C=C/C(=O)c2ccc(Cl)cc2)c1` gave a pKi of 8.19.
As for `COC(=O)c1ccc2c(c1)C(=O)N(CCc1ccccc1)C2=O`, the pKi in [8], in [9], in test [10] and in test [11] was under 5.00 each time.
As to `COC(=O)c1ccc2c(c1)C(=O)N(Cc1ccccc1)C2=O`, the pKi in test [8], in [9], in [10] and in test [11] was under 5.00 throughout.
As for `O=S1(=O)CC=Cc2cccc(Br)c2O1`, the pKi in test [12] and in test [13] was under 4.00 in each case.
Regarding `COc1ccc(-c2cccc3c2OS(=O)(=O)CC=C3)cc1`, the pKi in test [12] and in test [13] was under 4.00 in each case.
`NS(=O)(=O)c1cccc(N/C=C/C(=O)c2ccc(Br)cc2)c1` gave a pKi in test [1] of 8.19.
`O=S1(=O)CC=Cc2cccc(-c3ccccc3)c2O1`: the pKi in test [12] and in [13] was under 4.00 in each case.
With `O=C(O)c1ccc2c(c1)C(=O)N(CCc1ccccc1)C2=O`, the pKi in [8], in test [9], in test [10] and in test [11] was under 5.00 throughout.
On to `NS(=O)(=O)c1cccc(N/C=C/C(=O)c2ccccc2)c1`, for which, in [1], the pKi was 8.19.
As to `CCOC(=O)c1ccc(-c2ccc3c(c2)OS(=O)(=O)CC=C3)cc1`, the pKi in test [12] and in test [13] was under 4.00 each time.
Consider `NS(=O)(=O)c1ccc(CCn2c(SCc3ccc([N+](=O)[O-])cc3)nc3ccccc3c2=O)cc1`, for which, in test [7], the pKi is 7.76.
Consider `COc1cc(/C=N/NC(=O)c2ccc(S(N)(=O)=O)cc2)ccc1O`, for which the pKi was 8.07 in test [6] and 8.01 in test [7].
For `NS(=O)(=O)c1ccc(CCn2c(SCc3ccccc3)nc3ccccc3c2=O)cc1` the same measures were 7.71 and 7.76.
For the compound `CCOC(=O)c1ccc(N2C(=O)c3ccc(C(=O)O)cc3C2=O)cc1`, the pKi in test [8], in test [9], in test [10] and in test [11] was under 5.00 in each case.
Turning to `COC(=O)c1ccc2c(c1)C(=O)N(c1ccc(S(N)(=O)=O)cc1)C2=O`, the pKi was 7.27 in [8], 7.59 in test [9], 6.50 in [10] and 7.34 in test [11].
For `COC(=O)c1ccc2c(c1)C(=O)N(Cc1ccc(S(N)(=O)=O)cc1)C2=O` the same measures were 7.27, 7.59, 6.50 and 7.27.
